The record followed here is US20110028715A1, “NOVEL ADENINE COMPOUND” (priority 2007, published 2011).

Molecules are shown by their SMILES.

The test system of assay [1] is IFN-α. Nature of the assay: IFN-α production inducing activity in mice (plasma IFN-α by L929/2-5AS-Luc bioassay). In kind it is in vivo, B6C3F1 mice. The note with it: 3 hours after 1 mg/kg intravenously via tail vein, mean ± standard deviation (n = 3). Here is the method: A test compound was administered to B6C3F1 mice (Charles River Japan, Inc.) via tail vein at the dose of 1 mg/kg intravenously. After 3 hours, total blood was collected into a sample tube containing heparin. Plasma was prepared from total blood after centrifugation (3,000 rpm, 10 min, at room temperature) and stored at −20° C.
Murine fibroblasts (L929/2-5AS-Luc), which constitutively expressed luciferase gene in which the promoter region for 2′-5′-oligoadenylate synthase was cloned, was seeded into 96-well plate at 4×10^4 cells/well, and cultured for overnight with diluted plasma or mouse IFN-α. After Luclite (Perkin Elmer) was added to the plate, the luciferase activity was measured with TopCount (Perkin Elmer).
The concentration of IFN-α in plasma was calculated by linear regression of logarithmic transformed concentration of mouse IFN-α and the luciferase activity.

Assay [2] concerns OV-HM ovarian carcinoma. Nature of the assay: Antitumor activity: lung metastasis in OV-HM ovarian carcinoma-bearing mouse. In kind it is in vivo, B6C3F1 mouse. The note with it: Day 35. Here is the method: OV-HM ovarian carcinoma-bearing B6C3F1 mouse was prepared by intradermally inoculating 1×10^6 viable OV-HM cells in back skin. Tumor was surgically removed ten days after the tumor incubation under isoflurane anesthesia. On Day 11, Day 14, Day 17, Day 20, Day 24, Day 28, and Day 32, a test compound was administered via tail vein at the dose of 1 mg/kg. On Day 35, mouse was euthanized, and lung was collected from the mouse. Metastasized tumor nodules in lung was counted, and the frequency of the metastasized mice was calculated in each group.

For the molecule `CCOc1nc(N)c2[nH]c(=O)n(Cc3ccc(CN(C)C)cc3)c2n1` [Example 63, 6-Amino-9-(4-dimethylaminomethylbenzyl)-2-ethoxy-7,9-dihydropurin-8-one], the “Mouse IFN-α” value in assay [1] worked out at 25.4 ± 13.9 IU/mL. Further, the Frequency of metastasis in assay [2] (metastasized mice per group, lung, 1 mg/kg via tail vein on Days 11, 14, 17, 20, 24, 28, 32) is 0/6. The Number of tumor in assay [2] (metastasized tumor nodules in lung, 1 mg/kg via tail vein, **p < 0.01 vs vehicle group (Wilcoxon)) is on record as 0.0**.
